Data taken from PMC9845330 (Communications Biology, 2023).
Non-standard residues stand in square brackets, D forms with d. Residues, ends and D or L forms follow the SMILES beside them. *: point of attachment. X1 = O=C(CCCC[C@@H]1SC[C@@H]2NC(=O)N[C@@H]21)NCCCOCCOCCOCCCN*; PEG12 = NCCOCCOCCOCCOCCOCCOCCOCCOCCOCCOCCOCCOCCC(=O)O

Key:
HBEC cells = experiment: In vitro saporin delivery, cell viability (CellTiter-GLO); type: cell-based, human; conditions: saporin conjugate, 6 h exposure, viability at 72 h
Description: The ability of MGS4_V8-saporin conjugate to induce cell death was determined.
Biotinylated peptide was conjugated to streptavidin-saporin (Advanced Targeting Systems Bio, San Diego, CA) in a 1:1 molar ratio. Increasing doses of peptide-drug conjugate in triplicate were incubated on the cells for 6 h at 37 °C. The drug was removed and replaced with complete growth media. After 72 h, cell viability was measured using CellTiter-GLO® (Promega, Madison, WI). Cell viability was normalized to untreated cells. IC50s were calculated using GraphPad Prism® using log(agonist) vs. response–Variable slope (four parameters). […]
M GS4_V4 (non-acetylated, panel a) and M GS4_V8 (acetylated, panel b ) were incubated in 100% human serum for 0 and 48-hours. Serum proteins were precipitated, and the peptide was analyzed by analytical
HPLC. The mass of the peptide and degradation products were determined by MALDI MS and are […]
MGS4_V8, MGS4_V9, or MGS4_V10 were conjugated with streptavidin-Alexa Fluor 650 and were incubated with the indicated cell line for 1 hour. Non-internalized peptide was rem ov ed, and the mean number of peptides internalized per cell was determined to calculate the EC50. […]
Supplemental Figure 4 : Peptide-Streptavidin conjugates are nontoxic to cells. a. […] After 72 hours, viability was measured. […]

## CC(=O)N[C@@H](Cc1ccccc1)C(=O)N[C@@H](Cc1c[nH]cn1)C(=O)N[C@@H](C)C(=O)N[C@H](C(=O)N1CCC[C@H]1C(=O)N[C@@H](CCC(N)=O)C(=O)N[C@@H](CO)C(=O)N[C@@H](Cc1ccccc1)C(=O)N[C@@H](Cc1ccc(O)cc1)C(=O)N[C@H](C(=O)NCCOCCOCCOCCOCCOCCOCCOCCOCCOCCOCCOCCOCCC(=O)N[C@@H](CCC(=O)NCCCOCCOCCOCCCNC(=O)CCCC[C@@H]1SC[C@@H]2NC(=O)N[C@@H]21)C(N)=O)[C@@H](C)O)C(C)C [MGS4_V8] (Ac-FHAVPQSFYT[PEG12]E(X1)-NH2)
HBEC cells
  IC50: do not reach 50% cell viability
other
  stable in human serum for: > 48 h
